Results reported in patent US20240010634A1, “PYRIMIDINYL SULFONAMIDES AS INHIBITORS OF ACK1/TNK2 TYROSINE KINASE” (H. LEE MOFFITT CANCER CENTER AND RESEARCH INSTITUTE, INC., priority 2020, published 2024).

The compounds below were run against ACK1 (Homo sapiens (Human), UniProt Q07912) (assay: Reaction Biology 33P Hotspot assay).
Assay type: biochemical

Sequence of ACK1 (Q07912 whole entry): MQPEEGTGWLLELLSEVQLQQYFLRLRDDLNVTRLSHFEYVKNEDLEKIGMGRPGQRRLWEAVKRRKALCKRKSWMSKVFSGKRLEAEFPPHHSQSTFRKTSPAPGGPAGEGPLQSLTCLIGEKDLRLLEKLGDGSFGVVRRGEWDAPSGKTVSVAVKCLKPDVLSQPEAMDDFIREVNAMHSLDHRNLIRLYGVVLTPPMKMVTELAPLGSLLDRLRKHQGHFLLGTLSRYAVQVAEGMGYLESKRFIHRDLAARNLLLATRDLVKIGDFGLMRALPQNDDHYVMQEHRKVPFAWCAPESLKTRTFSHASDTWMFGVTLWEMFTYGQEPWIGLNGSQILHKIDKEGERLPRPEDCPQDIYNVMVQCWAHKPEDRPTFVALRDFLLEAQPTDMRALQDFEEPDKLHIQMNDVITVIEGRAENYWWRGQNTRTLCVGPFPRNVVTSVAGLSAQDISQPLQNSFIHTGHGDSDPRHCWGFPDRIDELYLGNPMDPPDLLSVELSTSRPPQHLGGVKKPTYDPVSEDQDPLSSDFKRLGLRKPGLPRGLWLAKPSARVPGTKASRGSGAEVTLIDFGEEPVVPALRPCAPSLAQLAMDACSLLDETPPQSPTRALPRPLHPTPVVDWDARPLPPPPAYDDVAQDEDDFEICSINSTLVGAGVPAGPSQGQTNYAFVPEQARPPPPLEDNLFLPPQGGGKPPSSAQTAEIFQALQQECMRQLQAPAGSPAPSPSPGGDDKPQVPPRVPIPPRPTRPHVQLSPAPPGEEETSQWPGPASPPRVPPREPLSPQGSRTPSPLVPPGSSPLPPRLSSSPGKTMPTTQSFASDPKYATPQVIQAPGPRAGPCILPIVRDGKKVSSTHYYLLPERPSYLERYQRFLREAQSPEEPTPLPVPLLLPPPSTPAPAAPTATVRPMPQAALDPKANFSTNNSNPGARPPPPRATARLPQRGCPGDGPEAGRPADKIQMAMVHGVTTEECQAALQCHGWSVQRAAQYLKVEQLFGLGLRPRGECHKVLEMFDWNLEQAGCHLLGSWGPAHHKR

Q: Which IC50 does the source give for `COc1cc(N2CCN(C)CC2)ccc1Nc1ncc(Cl)c(Nc2ccc(NS(=O)(=O)C(C)(C)C)cc2)n1` [N-(4-((5-chloro-2-((2-methoxy-4-(4-methylpiperazin-1-yl)phenyl)amino)pyrimidin-4-yl)amino)phenyl)-2-methylpropane-2-sulfonamide] here?
A: The IC50 was 17.5 nM.

Q: How did the IC50 turn out when `Cc1cnc(Nc2ccc(N3CCN(C)CC3)cc2OC2CCC2)nc1Nc1cccc(NS(=O)(=O)C(C)(C)C)c1` [N-(3-((2-((2-cyclobutoxy-4-(4-methylpiperazin-1-yl)phenyl)amino)-5-methylpyrimidin-4-yl)amino)phenyl)-2-methylpropane-2-sulfonamide] was run?
A: The IC50 was 26.2 nM.

Q: How did the IC50 turn out when `CC(C)Oc1cc(Nc2ncc(Cl)c(Nc3cccc(NS(=O)(=O)C(C)(C)C)c3)n2)ccc1-c1cnn(C)c1` [N-(3-((5-chloro-2-((3-isopropoxy-4-(1-methyl-1H-pyrazol-4-yl)phenyl)amino)pyrimidin-4-yl)amino)phenyl)-2-methylpropane-2-sulfonamide] was run?
A: Its IC50 is 64 nM.

Q: With `COc1cc(N2CCN(C)CC2)ccc1Nc1ncc(C)c(Nc2ccc(NS(=O)(=O)C(C)(C)C)cc2)n1` [N-(4-((2-((2-methoxy-4-(4-methylpiperazin-1-yl)phenyl)amino)-5-methylpyrimidin-4-yl)amino)phenyl)-2-methylpropane-2-sulfonamide] as the compound, how does the IC50 read?
A: The IC50 was 7.62 nM.

Q: How did the IC50 turn out when `Cc1cnc(Nc2ccc(-c3cnn(C)c3)c(OC(C)C)c2)nc1Nc1ccc(NS(=O)(=O)C(C)(C)C)cc1` [N-(4-((2-((3-isopropoxy-4-(1-methyl-1H-pyrazol-4-yl)phenyl)amino)-5-methylpyrimidin-4-yl)amino)phenyl)-2-methylpropane-2-sulfonamide] was run?
A: The IC50 was 16.9 nM.

Q: With `CC(C)Oc1cc(Nc2ncc(Cl)c(Nc3cccc(NS(=O)(=O)C(C)(C)C)c3)n2)ccc1N1CCN(C)CC1` [N-(3-((5-chloro-2-((3-isopropoxy-4-(4-methylpiperazin-1-yl)phenyl)amino)pyrimidin-4-yl)amino)phenyl)-2-methylpropane-2-sulfonamide] as the compound, how does the IC50 read?
A: Its IC50 is 15 nM.

Q: How did the IC50 turn out when `CC(=O)N1CCN(c2ccc(Nc3ncc(C)c(Nc4cccc(NS(=O)(=O)C(C)(C)C)c4)n3)cc2OC(C)C)CC1` [N-(3-((2-((4-(4-acetylpiperazin-1-yl)-3-isopropoxyphenyl)amino)-5-methylpyrimidin-4-yl)amino)phenyl)-2-methylpropane-2-sulfonamide] was run?
A: Its IC50 is 13 nM.

Q: For `CC(C)Oc1cc(Nc2ncc(Cl)c(Nc3ccc(NS(=O)(=O)C(C)(C)C)cc3)n2)ccc1-c1cnn(C)c1` [N-(4-((5-chloro-2-((3-isopropoxy-4-(1-methyl-1H-pyrazol-4-yl)phenyl)amino)pyrimidin-4-yl)amino)phenyl)-2-methylpropane-2-sulfonamide], which IC50 is on record?
A: The IC50 was 75.9 nM.

Q: How did the IC50 turn out when `COc1cc(N2CCN(C(C)=O)CC2)ccc1Nc1ncc(C)c(Nc2cccc(NS(=O)(=O)C(C)(C)C)c2)n1` [N-(3-((2-((4-(4-acetylpiperazin-1-yl)-2-methoxyphenyl)amino)-5-methylpyrimidin-4-yl)amino)phenyl)-2-methylpropane-2-sulfonamide] was run?
A: The IC50 was 21.3 nM.

Q: `COc1cc(Nc2ncc(Cl)c(Nc3ccc(NS(=O)(=O)C(C)(C)C)cc3)n2)ccc1N1CCN(C)CC1` [N-(4-((5-chloro-2-((3-methoxy-4-(4-methylpiperazin-1-yl)phenyl)amino)pyrimidin-4-yl)amino)phenyl)-2-methylpropane-2-sulfonamide] was tested. Which IC50 did it give?
A: Its IC50 is 17.5 nM.

Q: How did the IC50 turn out when `COc1cc(N2CCN(C)CC2)c(F)cc1Nc1ncc(C)c(Nc2ccc(NS(=O)(=O)C(C)(C)C)cc2)n1` [N-(4-((2-((5-fluoro-2-methoxy-4-(4-methylpiperazin-1-yl)phenyl)amino)-5-methylpyrimidin-4-yl)amino)phenyl)-2-methylpropane-2-sulfonamide] was run?
A: Its IC50 is 30.8 nM.

Q: For `COc1cc(-c2cnn(C)c2)ccc1Nc1ncc(C)c(Nc2cccc(NS(=O)(=O)C(C)(C)C)c2)n1` [N-(3-((2-((2-methoxy-4-(1-methyl-1H-pyrazol-4-yl)phenyl)amino)-5-methylpyrimidin-4-yl)amino)phenyl)-2-methylpropane-2-sulfonamide], which IC50 is on record?
A: The IC50 was 15.2 nM.
